The results in this text go back to BindingDB's records for patent US20250034134 (Wuhan Humanwell Innovative Drug Research and Development …, 2025).

The assay deals with T1, 15-hydroxyprostaglandin dehydrogenase [NAD(+)] (Homo sapiens, UniProt P15428).
T1 sequence (P15428 whole entry): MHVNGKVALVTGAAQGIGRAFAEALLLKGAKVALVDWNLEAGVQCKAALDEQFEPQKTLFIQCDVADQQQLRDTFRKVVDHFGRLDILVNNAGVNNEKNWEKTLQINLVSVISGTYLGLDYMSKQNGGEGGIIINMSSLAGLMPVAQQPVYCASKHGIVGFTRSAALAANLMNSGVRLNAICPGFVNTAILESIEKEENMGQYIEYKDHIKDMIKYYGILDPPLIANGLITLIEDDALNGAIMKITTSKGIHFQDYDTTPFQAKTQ
In words: Inhibition test of compounds on 15-PGDH enzyme. As for the experimental part:
15-PGDH (R&D Systems, Cat. No.: 5660-DH-010) was prepared to twice the final concentration, i.e., 30 nM, using Assay Buffer (50 mM Tris-HCl, pH 7.5, 0.01vol % Tween 20). The obtained mixture was then added to a 384-well white plate (Cisbio Bioassays, Cat. No. 66PL384025) at 8 μL/well. Negative control wells (with Assay Buffer only and without enzyme) were set. The compound was then prepared to 4 times the final concentration using Assay Buffer, i.e., diluted 3-fold to 10 concentrations starting from 4000 nM. The obtained mixture was added to the above white plate at 4 μL/well, mixed well, centrifuged at 1000 rpm for 1 minute, and incubated at 25° C. for 10 minutes. Both positive control wells (with 15-PGDH only) and negative control wells (without 15-PGDH) were set. A mixture of NAD+(Select, Cat. No. S2518) and PGE2 (R&D Systems, Cat. No.: 2296/10) was then prepared using Assay Buffer. NAD+ and PGE2 were prepared to four times their final concentrations, i.e., 2 mM and 0.12 mM, respectively, using Assay Buffer. The obtained mixture was then added to the above white plate at 4 μL/well, mixed well, centrifuged at 1000 rpm for 1 minute, and incubated at 25° C. for 30 minutes for the reaction. The fluorescence was detected at an excitation wavelength of 340 nm and an emission wavelength of 485 nm using instrument TECAN SPARK 20M.
In the case of `CN1CC2=CC(N3CC4CC4C4C=C(C(=O)N5CCC(F)(F)CC5)C=NC43)CN=C2C1=O` (configuration not stated) [US20250034134, Compound I-2], the IC50 (in general, the concentration at which inhibition is half-maximal) was 5.15 nM.

The compound `CNC(=O)c1ccc(N2CC3CC3C3C=C(C(=O)N4CCC(F)(F)CC4)C=NC32)cc1F` (configuration not stated) [US20250034134, Compound I-9] had an IC50 of 9.51 nM.

For `[2H]C([2H])([2H])N1NC2C=C(N3C[C@H]4C[C@@H]4C4C=C(C(=O)N5CCC(F)(F)CC5)C=NC43)C=CN2C1=O` (some centres not stated) [US20250034134, Compound I-25B], half-maximal inhibition (IC50) was put at 3.78 nM.

In turn, `CN1NC2C=C(N3CC4CC4C4C=C(C(=O)N5CCCC(C(F)F)C5)C=NC43)C=CN2C1=O` (configuration not stated) [US20250034134, Compound I-23] yielded a half-maximal inhibitory concentration (IC50) of 4.26 nM.

The compound `CN1NC2C=C(N3CC4CC4C4C=C(C(=O)N5CCC(F)(F)C5)C=NC43)C=CN2C1=O` (configuration not stated) [US20250034134, Compound I-21] came in with an IC50 of 4.95 nM.

The compound `CN1C(=O)C2=NCC(N3CC4CC4C4C=C(C(=O)N5CCC(F)(F)CC5)C=NC43)C=C2C12CC2` (configuration not stated) [US20250034134, Compound I-19] registered a half-maximal inhibitory concentration (IC50) of 3.72 nM.

As for `CN1NC2C=C(N3CC4CC4C4C=C(C(=O)N5CCC6(CC5)CC6)C=NC43)C=CN2C1=O` (configuration not stated) [US20250034134, Compound I-28], half-maximal inhibition (IC50) required 1.71 nM.

On to `CN1NC2C=C(N3C[C@H]4C[C@@H]4C4C=C(C(=O)N5CCC(F)(F)CC5)C=NC43)C=CN2C1=O` (some centres not stated) [US20250034134, Compound I-3B], for which half-maximal inhibition (IC50) required 3.58 nM.

Turning to `Cn1ccc2c(c1=O)=CCC(N1C[C@H]3C[C@@H]3C3C=C(C(=O)N4CCC(F)(F)CC4)C=NC31)C=2` (some centres not stated) [US20250034134, Compound I-12B], half-maximal inhibition (IC50) required 7.42 nM.

As for `O=C(C1=CC2C3CC3CN(C3=CC4NC=NN4C=C3)C2N=C1)N1CCC(F)(F)CC1` (configuration not stated) [US20250034134, Compound I-16], half-maximal inhibition (IC50) required 5.4 nM.

`CN1NC2C=C(N3CC4CC4C4C=C(C(=O)N5CC6CC6C5)C=NC43)C=CN2C1=O` (configuration not stated) [US20250034134, Compound I-29] gave an IC50 of 5.3 nM.

As to `Cn1ccc2c(c1=O)=CCC(N1C[C@@H]3C[C@@H]3C3C=C(C(=O)N4CCC(F)(F)CC4)C=NC31)C=2` (some centres not stated) [US20250034134, Compound I-12A], the IC50 was 1.52 nM.

In turn, `N#Cc1ccc(N2CC3CC3C3C=C(C(=O)N4CCC(F)(F)CC4)C=NC32)cc1` (configuration not stated) [US20250034134, Compound I-11] displayed an IC50 of 3.8 nM.

As to `[2H]C([2H])([2H])N1NC2C=C(N3CC4CC4C4C=C(C(=O)N5CCC(F)(F)CC5)C=NC43)C=CN2C1=O` (configuration not stated) [US20250034134, Compound I-25], the IC50 was found to be 2.59 nM.

As to `CN1NC2C=C(N3CC4CC4C4C=C(C(=O)N5CCCC(F)C5)C=NC43)C=CN2C1=O` (configuration not stated) [US20250034134, Compound I-27], the IC50 worked out at 5.7 nM.

On to `Cn1nc2cc(N3CC4CC4C4C=C(C(=O)N5CCCC(C(F)(F)F)C5)C=NC43)ccn2c1=O` (configuration not stated) [US20250034134, Compound I-26], for which the IC50 amounted to 9.9 nM.

`CN1NC2C=C(N3CC4CC4C4C=C(C(=O)N5CCC[C@@H](CF)C5)C=NC43)C=CN2C1=O` (some centres not stated) [US20250034134, Compound I-30] came in with an IC50 of 6 nM.

Take `Cn1ccc2c(c1=O)=CCC(N1CC3CC3C3C=C(C(=O)N4CCC(F)(F)CC4)C=NC31)C=2` (configuration not stated) [US20250034134, Compound I-12]: the IC50 was 2.1 nM.

Take `CN1NC2C=C(N3CC4CC4C4C=C(C(=O)N5CCCC(F)(F)C5)C=NC43)C=CN2C1=O` (configuration not stated) [US20250034134, Compound I-24]: the IC50 worked out at 4.23 nM.

`Cn1nc2cc(N3CC4CC4C4C=C(C(=O)N5CCOCC5)C=NC43)ccn2c1=O` (configuration not stated) [US20250034134, Compound I-22] yielded an IC50 of 10.2 nM.

Consider `O=C(C1=CC2C3CC3CN(C3=CC4NN=CN4C=C3)C2N=C1)N1CCC(F)(F)CC1` (configuration not stated) [US20250034134, Compound I-17], for which the midpoint of inhibition, the IC50, lay at 4.5 nM.

As for `CN1C=NC2C=C(N3CC4CC4C4C=C(C(=O)N5CCC(F)(F)CC5)C=CC43)C=NC2C1=O` (configuration not stated) [US20250034134, Compound I-15], the IC50 turned out to be 5.7 nM.
